Results on 5 sequences are retold here after patent US7189523B2, “Methods of identifying compounds that modulate IL-4 receptor-mediated IgE synthesis utilizing a B-cell associated protein” (Rigel Pharmaceuticals, Inc., priority 2002, dated 2007).

Assay [1] relates to IL-4 induced germline ε transcription (ε promoter reporter) in naïve A5T4 cells. As to the kind of experiment: Re-infection (DNA transfer) assay in naïve A5T4 reporter cells; also used for the functional profile of the mutants. Format: cell-based, human. The settings on record: for functional category of the mutant compared to CL08wt: % change in reporter ratio calculated after subtracting 1.0 from the individual ratios; for Reporter Ratio: Table 2, CL08wt and mutants screened in the A5T4 reporter line. On the procedure: The ability of peptide CL08wt (SEQ ID NO: 1) to inhibit germline ε transcription was confirmed in naïve cells. Briefly, Phoenix cells were transfected with a retroviral vector encoding a BFP-CL08wt peptide fusion as described in WO 99/58663 and WO 97/27213. Naïve A5T4 cells were infected with the resultant virions and grown for 3 days. The infected cells were stimulated with IL-4 (60 U/mL) and, after 3 days, the cells were assessed by FACS for BFP and GFP. […] The BFP fluorescence data corresponding to the BFP^+ and BFP^− populations are provided in Panel A. The GFP fluorescence data corresponding to the BFP^+ and BFP^− populations are presented in Panel B. The reporter ratio for this purpose is determined as the geometric mean of the GFP fluorescence of the BFP^− population divided by the geometric mean of the GFP fluorescence of the BFP^+ population. The reporter ratio for the CL08 in this re-infection assay was 1.39.
A collection of CL08 mutants was generated by replacing single or double amino acid residues in the sequence of CL08wt (SEQ ID NO: 1) with a different amino acid, typically an alanine, as described in copending application Ser. No. 10/095,659, entitled Methods of Identifying Protein Targets, filed Mar. 8, 2002. The functional profiles for the mutants derived from CL08wt (SEQ ID NO: 1) was obtained by constructing and screening for activity in the A5T4 reporter cell line in the manner described above. The activity of each mutant at the germline ε promoter is reflected in the reporter ratio, as described above. The reporter ratios were the functional values that were used to develop the functional profiles.
TABLE 2 depicts the amino acid sequences (the mutations are underlined) of the mutants tested and the measured reporter ratios when screening in the A5T4 reporter line.
Comparison of the interaction and functional profiles was performed by categorizing the mutants of CL08 based on the functional and interaction assays. Based on the reporter ratio, described in panel C of FIG. 5, each mutant was categorized into one of four functional categories: (1) reduction of function (ROF); (2) loss of function (LOF); (3) increase of function (IOF) or (4) functionally neutral (N), as compared to the activity of the wild type peptide, here CL08wt. As mentioned previously, cells expressing a peptide that inhibits germline ε transcription have reporter ratios of ≧1.1. Cells expressing a loss of function mutant have a reporter ratio of […]. […] Functionally neutral mutants have reporter ratios that fall within ±50% of that of the CL08wt (SEQ ID NO: 1) peptide. The % increase or decrease in reporter ratio is calculated after subtracting 1.0 from the individual ratios. […]

Assay [2] concerns the target T1, human BAP-37 (hBAP-37) (Homo sapiens, UniProt Q99623).
T1 construct: expressed in transfected cells; prey cDNA from a library of the A5T4 reporter line (BJAB human B-cells)
As to the kind of experiment: β-galactosidase yeast two hybrid (YTH) interaction assay. Format: binding. As to conditions: peptide as bait. On the procedure: Potential binding partners for peptide CL08wt (SEQ ID NO: 1) were identified in a β-galactosidase yeast two-hybrid (YTH) assay using peptide CL08wt (SEQ ID NO: 1) as bait and a cDNA library constructed from the A5T4 reporter cell line as prey. Binding was assessed by β-galactosidase quantification using BetaFluor (Novagen) as a substrate. A negative interaction control (no cDNA fused downstream of the GAL4 activation domain sequence) was also run. A general outline of the YTH assay is illustrated in FIG. 6A. Following clustering, filtering to remove non-specific bait hits (e.g., GFP and BFP), singletons and clusters recognized by 10 or more cDNA baits (based upon historical YTH assays), 7 prey clones were identified as hits.
Potential targets identified in the YTH assay were reconfirmed as generally outlined in FIG. 7. The cDNA clones identified as hits in the YTH assay were purified and rescreened for interaction with the CL08wt peptide in YTH assay. The hit clones were also screened in a control assay for interaction with the BFP using a vector (pGBKT7) that contained only the BFP and not the CL08wt peptide. At this stage, 7 putative target clones remained.
The interaction of CL08wt (SEQ ID NO: 1) peptide and its mutants with the clones identified as potential targets for the peptide CL08wt (SEQ ID NO: 1) was then quantified in a β-galactosidase YTH assay. The YTH assay was performed in the manner described above. A general outline of this YTH assay is illustrated in FIG. 6B. For each clone tested, an interaction profile was developed by comparing the β-galactosidase activity of each mutant to that of the wild type peptide, as described above.
The interaction of these N, IOF and ROF mutants with different polypeptides encoded by the putative target clones were quantified using the YTH assay described above. […]

Assay [3] deals with IL-4 induced germline ε transcription (ε promoter reporter) in A5T4 reporter cells. As to the kind of experiment: A5T4 reporter line screening assay of library clones (HBEGF2a/GFP reporter, FACS). The settings on record: geometric mean GFP fluorescence, +IL-4/+Dox to +IL-4/−Dox populations; IL-4 60 U/mL, Dox 10 ng/ml; ≧1.1 = inhibition. The format is cell-based, human. The source says:
Peptide CL08wt (SEQ ID NO: 1) was identified by screening a retroviral library of random peptide 20-mers for the ability to inhibit IL-4 induced germline ε transcription using the HBEGF2a/[…] dual reporter phenotypic screening system described in WO 01/31232. To construct the random library, A5T4 reporter cells (described in more detail below) were infected with an infectious retroviral library of random peptide 20-mers (prepared as described in WO 97/27213; see also WO 01/34806 at page 39, line 36 through page 40, line 19). The retroviral vector used includes a gene encoding blue fluorescent protein (BFP) fused upstream of the region encoding the random peptide via a linker region encoding an α-helical peptide linker (expression fusion product is referred to as “BFP-peptide”). Expression of the BFP-peptide product is controlled by a promoter sensitive to the tetracycline-regulated transactivator such that expression of the BFP-peptide is regulated by tetracycline (Tet) or doxycycline (Dox). See U.S. patent application Ser. No. 10/096,339 entitled “Methods and Compositions for Screening for Alter Cellular Phenotypes”, filed on Mar. 8, 2002. […]

In assay [4] the test system is ST486 endogenous α promoter. Briefly: TAQMAN assay of germline α transcription (selectivity). As to conditions: ST486 cells stimulated with TGF-β 40 ng/ml; average of 3 values; p=0.7371. The format is cell-based. The procedure: The assay was similar to that described in the immediately preceding section, except that ST486 cells (ATCC #CRL-1647) engineered to express the tetracycline-regulated transactivator were infected and the infected cells were stimulated with TGF-β (40 ng/ml; Peprotech). The primers and probe, which are specific for the transcription product driven by the ST486 endogenous α promoter, were as follows (the probe was labeled at the 5′-end with Fam and at the 3′-end with Tamra): […]
A general note: Quantitative PCR measures a nucleic acid by following its amplification.

T1 sequence (Q99623 whole entry): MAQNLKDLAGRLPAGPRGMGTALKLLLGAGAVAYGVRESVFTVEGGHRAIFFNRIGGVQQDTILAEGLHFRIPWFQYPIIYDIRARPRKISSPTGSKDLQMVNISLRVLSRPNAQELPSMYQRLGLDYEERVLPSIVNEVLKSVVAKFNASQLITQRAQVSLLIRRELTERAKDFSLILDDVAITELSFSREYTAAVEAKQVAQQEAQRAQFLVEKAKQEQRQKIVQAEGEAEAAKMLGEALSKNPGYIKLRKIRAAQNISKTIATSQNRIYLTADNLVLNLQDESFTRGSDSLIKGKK

Consider “TGAAVELQINRSIMHYISSP (peptide encoded by synthetic oligomer) [CL08VH, double alanine mutant of CL08wt]”, for which the “functional category of the mutant compared to CL08wt” value in assay [1] is “ROF (a reduction of function of mutant (ROF) shows a >50% decrease in reporter ratio)”. Moreover, in assay [2], the “binding to human BAP-37 in yeast two hybrid interaction assay” value (“binding” for short) is on record as “bind”. On to “TGVHVELQINRSIMAAISSP (peptide encoded by synthetic oligomer) [CL08HY, double alanine mutant of CL08wt]”, for which, in assay [1], the “Reporter Ratio” value came to 1.54. As to “TGVHVELQIAASIMHYISSP (peptide encoded by synthetic oligomer) [CL08NR, double alanine mutant of CL08wt]”, in assay [1], the “functional category of the mutant compared to CL08wt” value is recorded as “IOF (An increase of function mutant (IOF) shows a >50% increase in reporter ratio)”. In assay [2], the “binding” value is “bind”.

For the sequence “TGVHVAAQINRSIMHYISSP (peptide encoded by synthetic oligomer) [CL08EL, double alanine mutant of CL08wt]”, the “Reporter Ratio” value in assay [1] came to 1.43. Regarding “TGVHVELQINRSIMHYISSP (peptide encoded by synthetic oligomer) [CL08wt, 20-mer peptide from a random retroviral library, expressed as BFP-peptide fusion]”, in assay [3], the Reporter Ratio is listed as 1.37. For the same sequence, in assay [4], the “endogenous α inhibition ratio” value stood at 1.06. Moreover, in assay [2], the “binding” value is on record as “bind”.
